{"source": "patent US9274101B2", "about": "(BIOLOG, Inc., priority 2001, dated 2016)", "key": {"[1]": {"test_system": "E. coli MG1655", "type": "cell-based, Escherichia coli"}, "[2]": {"test_system": "ten strains of E. coli", "type": "cell-based, Escherichia coli"}, "[3]": {"test_system": "E. coli MG1655", "type": "cell-based, Escherichia coli", "remark": "listed apart in the source"}, "[4]": {"test_system": "HepG2 cells", "assay": "HepG2 cells on flat bottom plastic wells, energy sources at a range of concentrations", "type": "cell-based, human", "details": "Homo sapiens, HepG2, 72 h, read-out: HepG2 Cells Responses After 72 hours in Culture and a 4 hour Color Development Period", "procedure": "In this Example, methods for testing adherent cells for their ability to use multiple carbon sources are described. The human hepatocellular carcinoma cell line known as HepG2 (Knowles et al., Science, 209:497-499 [1980]) was chosen for this experiment. However, this application is not intended to be limited to the use of HepG2 cells, hepatocytes, carcinoma cells or even human cells.\nHepG2 cells were grown in Falcon tissue culture flasks with vented tops. The culture medium used was Minimal Essential medium (MEM, Invitrogen 11095) with 1 g/L glucose, 2 mM L-glutamine, 2.2 g/L sodium bicarbonate, 10 mg/L phenol red, and supplemented with 0.1 mM Nonessential Amino Acids, 1 mM sodium pyruvate, 50 U/mL penicillin, 50 μg/mL streptomycin, and 10% (v/v) heat inactivated fetal bovine serum (HI FBS, Invitrogen 16140). The cells were seeded at 2×10^4/cm^2 and used 3 days after initiation of culture. During all incubations, the cells were kept in an atmosphere of 5% CO2, 90-100% humidity, and 37° C. Cells were harvested by trypsinization for 3 minutes in 0.25% trypsin-1 mM EDTA and resuspended in an equal volume of culture medium. A viable cell count was obtained by trypan blue exclusion and an appropriate volume of the cell suspension (to have 33% more viable cells than was sufficient for the experiment) was placed in a polypropylene centrifuge tube. Cells were pelleted by centrifugation at 350×g for 10 minutes at room temperature, resuspended in Dulbecco's Phosphate Buffered Saline (D-PBS, Invitrogen 14040) and centrifuged a second time. Cells were then resuspended to two-thirds the final volume needed in Dulbecco' ? s Modified Eagle's Medium (DME, Sigma D5030) containing 10% HI FBS and penicillin-streptomycin but without glucose, L-glutamine, sodium pyruvate, and phenol red. An aliquot was counted by trypan blue exclusion and the cell density was adjusted to 1.28×10^5/mL. Cells were plated in 100 μL/well in wells of standard, 96-well plates (4×10^4 cells/cm^2) and allowed to adhere overnight prior to addition of test chemicals.\nFor assay, the culture medium was aspirated, the wells were washed once with D-PBS and 170 μL of DME were added to each well, followed by 30 μL of the appropriate dilution of each test energy source. Stocks of 133 mM of each test chemical were prepared in tissue culture grade water, sterile filtered, and dilutions were prepared in a master plate so that, upon dilution into a regular 96-well MICROPLATE a total well volume of 200 μL, the final concentrations would be 0.033 to 20 mM. Negative control wells received 30 μL of tissue culture grade water. For each plate containing energy sources and cells, a second, control plate containing only energy sources was prepared. Plates were incubated at 5% CO2, 90-100% humidity, and 37° C. for 48 to 72 hours prior to addition of the MTS/PMS colorometric reagent (10 μL/well). The color formed in each well 4-24 hours after addition of the calorimetric reagent, was measured with a plate reader at 490 nm with a reference wavelength of 650 nm. OD values from the control plate were subtracted from the OD values obtained with cells prior to normalizing the data to % negative control (cells without added energy source)."}, "[5]": {"test_system": "HL-60 cells", "assay": "HL-60 responses to selected compounds at a range of concentrations", "type": "cell-based, human", "procedure": "In this Example, methods for testing unattached cells for their ability to use various concentrations of selected carbon sources are described. The carbon sources used in this Example were identified by the methods disclosed in Example 27. Similarly, HL-60 cells were cultured as described in Example 27.\nAfter washing, HL-60 cells were resuspended in DME-R. An aliquot of the cell suspension was counted by trypan blue exclusion and the cell density was adjusted to 6.67×10^5/mL. Fifty μL of DME-R were added to each well of the appropriate number of half area, 96-well plates, followed by 23 μL of the appropriate dilution of each test energy source. Stocks of 133 mM of each test chemical were prepared in tissue culture grade water, sterile filtered, and dilutions were prepared in a master plate so that, upon dilution in a total volume of 150 μL, the final concentrations would be 0.033 to 20 mM. Negative control wells received 23 μL of tissue culture grade water. The cells were plated at a volume of 75 μL/well, giving a final cell density of 5×10^4/well. For each plate containing energy sources and cells, a second, control plate containing only energy sources was prepared. Plates were incubated at 5% CO2, 90-100% humidity, and 37° C. for 24 hours prior to addition of the MTS/MPMS colorometric reagent (7.5 μL/well). The color formed in each well after an additional 24 hour incubation period, was measured on a plate reader at 490 nm with a reference wavelength of 650 nm. OD values from the control plate were subtracted from the OD values obtained with cells prior to normalizing the data to % negative control (cells without added energy source)."}, "[6]": {"test_system": "DMSO-differentiated HL-60 cells", "assay": "Energy use by DMSO-differentiated HL-60 cells", "type": "cell-based, human", "details": "Homo sapiens, HL-60, 24 h, read-out: Energy Use by DMSO-Differentiated HL-60 Cells", "procedure": "In this Example, methods for testing in vitro-differentiated cells for their ability to use multiple energy sources are described. Prior to differentiation, HL-60 cells were cultured as described in Example 27. DMSO-induced differentiation (Odani et al., Res. Commun. Mol. Pathol. Pharmacol. 108:381-391 [2000]; and Yamaguchi et al., Biol. Pharm. Bull. 20:943-947 [1997]) was accomplished by incubation of the cells in the presence of 1.25% DMSO for 3 days.\nAfter washing, HL-60 cells were resuspended in DME-R. An aliquot of the cell suspension was counted by trypan blue exclusion and the cell density was adjusted to 6.67×10^5/mL. Fifty μL of DME-R were added to each well of the appropriate number of half area, 96-well plates, followed by 25 μL of the appropriate dilution of each test energy source. Stocks of 133 mM of each test chemical were prepared in tissue culture grade water, sterile filtered, and dilutions were prepared in a master plate so that, upon dilution into a half-area 96-well microtiter plate to a total well volume of 150 μL, the final concentrations would be 0.033 to 20 mM. Negative control wells received 25 μL of tissue culture grade water. The cells were plated at a volume of 75 μL/well, giving a final cell density of 5×10^4/well. For each plate containing energy sources and cells, a second, control plate containing only energy sources was prepared with the same total volume of liquid (148 μL/well). Plates were incubated at 5% CO2, 90-100% humidity, and 37° C. for 24 hours prior to addition of the MTS/MPMS calorimetric reagent (7.5 μL/well). The color formed in each well 24 hours after addition of the colorimetric reagent, was measured with a plate reader at 490 nm with a reference wavelength of 650 nm. OD values from the control plate were subtracted from the OD values obtained with cells prior to normalizing the data to % negative control (cells without added energy source)."}, "[7]": {"test_system": "Undifferentiated HL-60 cells", "assay": "Energy use by undifferentiated HL-60 cells", "type": "cell-based, human", "details": "Homo sapiens, HL-60, 24 h, read-out: Energy Use by Undifferentiated HL-60 Cells"}, "[8]": {"details": "Homo sapiens, HL-60, read-out: HL-60 Cell Responses to Selected Compounds from PM1 and PM2"}}, "note": "Where a SMILES comes first, the peptide text is derived from it. Wherever carbon source utilization is given: key: +: indicates that the organism tested was capable of utilizing the carbon source listed; −: indicates that the organism tested was not capable of utilizing the carbon source listed; indicates weak positive reactions.", "data": [{"smiles": "CCSCCC(N)C(=O)O", "note": "(racemic) [DL-ethionine]", "values": [{"measurement": "suitability as sulfur source (growth, purple color)", "setting": "[1]", "value": "not suitable"}]}, {"smiles": "CSCCC(NC(C)=O)C(=O)O", "note": "(racemic) [N-acetyl-DL-methionine]", "values": [{"measurement": "suitability as sulfur source (growth, purple color)", "setting": "[1]", "value": "positive"}]}, {"smiles": "CSCCC(NC(=O)CN)C(=O)O", "note": "(racemic) [glycyl-DL-methionine]", "values": [{"measurement": "suitability as sulfur source (growth, purple color)", "setting": "[1]", "value": "positive"}]}, {"smiles": "CCCCCCCCCCCCS(=O)(=O)O", "note": "[1-dodecane-sulfonic acid]", "values": [{"measurement": "suitability as sulfur source (growth, purple color)", "setting": "[1]", "value": "not suitable"}]}, {"smiles": "NCCP(=O)(O)O", "note": "[2-aminoethyl phosphonate]", "values": [{"measurement": "suitability as phosphorus source (growth, purple color)", "setting": "[1]", "value": "weak positive"}]}, {"smiles": "O=C(O)C(CO)OP(=O)(O)O", "note": "(centres unmarked) [2-phosphoglyceric acid]", "values": [{"measurement": "suitability as phosphorus source (growth, purple color)", "setting": "[1]", "value": "positive"}]}, {"smiles": "O=CC[C@@H](O)[C@H](O)[C@H](O)COP(=O)(O)O", "note": "[2′-deoxyglucose 6-phosphate]", "values": [{"measurement": "suitability as phosphorus source (growth, purple color)", "setting": "[1]", "value": "positive"}]}, {"smiles": "O=C(O)[C@H](O)[C@@H](O)[C@H](O)[C@H](O)COP(=O)(O)O", "note": "[6-phosphogluconic acid]", "values": [{"measurement": "suitability as phosphorus source (growth, purple color)", "setting": "[1]", "value": "positive"}]}, {"smiles": "C[C@H](N)C(=O)O", "note": "[L-alanine]", "values": [{"measurement": "carbon source utilization", "setting": "[2]", "value": "+"}, {"measurement": "suitability as nitrogen source (growth, purple color)", "setting": "[3]", "value": "not suitable"}]}, {"smiles": "C[C@H](N)C(=O)NCC(=O)O", "note": "[L-alanyl-glycine] (H-Ala-Gly-OH)", "values": [{"measurement": "carbon source utilization", "setting": "[2]", "value": "+"}, {"measurement": "suitability as nitrogen source (growth, purple color)", "setting": "[3]", "value": "positive"}]}, {"smiles": "N=C(N)NCCC[C@H](N)C(=O)O", "note": "[L-arginine]", "values": [{"measurement": "suitability as nitrogen source (growth, purple color)", "setting": "[3]", "value": "positive"}, {"measurement": "activity at 30 µM", "setting": "[4]", "value": 127, "unit": "%"}, {"measurement": "activity at 100 µM", "setting": "[4]", "value": 144, "unit": "%"}, {"measurement": "activity at 330 µM", "setting": "[4]", "value": 165, "unit": "%"}, {"measurement": "activity at 1000 µM", "setting": "[4]", "value": 142, "unit": "%"}, {"measurement": "activity at 3300 µM", "setting": "[4]", "value": 154, "unit": "%"}, {"measurement": "activity at 10000 µM", "setting": "[4]", "value": 119, "unit": "%"}, {"measurement": "activity at 15000 µM", "setting": "[4]", "value": 90.8, "unit": "%"}, {"measurement": "activity at 20000 µM", "setting": "[4]", "value": 60.3, "unit": "%"}, {"measurement": "response in words", "setting": "[5]", "value": "strongly utilized, even at very low concentrations"}, {"measurement": "activity at 30 µM", "setting": "[5]; [8]", "value": 134, "unit": "%"}, {"measurement": "activity at 100 µM", "setting": "[5]; [8]", "value": 138, "unit": "%"}, {"measurement": "activity at 330 µM", "setting": "[5]; [8]", "value": 131, "unit": "%"}, {"measurement": "activity at 1000 µM", "setting": "[5]; [8]", "value": 138, "unit": "%"}, {"measurement": "activity at 3300 µM", "setting": "[5]; [8]", "value": 132, "unit": "%"}, {"measurement": "activity at 10000 µM", "setting": "[5]; [8]", "value": 128, "unit": "%"}, {"measurement": "activity at 15000 µM", "setting": "[5]; [8]", "value": 108, "unit": "%"}, {"measurement": "activity at 20000 µM", "setting": "[5]; [8]", "value": 109, "unit": "%"}, {"measurement": "activity at 30 µM", "setting": "[6]", "value": 106, "unit": "%"}, {"measurement": "activity at 100 µM", "setting": "[6]", "value": 103, "unit": "%"}, {"measurement": "activity at 330 µM", "setting": "[6]", "value": 122, "unit": "%"}, {"measurement": "activity at 1000 µM", "setting": "[6]", "value": 126, "unit": "%"}, {"measurement": "activity at 3300 µM", "setting": "[6]", "value": 123, "unit": "%"}, {"measurement": "activity at 10000 µM", "setting": "[6]", "value": 132, "unit": "%"}, {"measurement": "activity at 15000 µM", "setting": "[6]", "value": 119, "unit": "%"}, {"measurement": "activity at 20000 µM", "setting": "[6]", "value": 93.4, "unit": "%"}, {"measurement": "activity at 30 µM", "setting": "[7]", "value": 124, "unit": "%"}, {"measurement": "activity at 100 µM", "setting": "[7]", "value": 118, "unit": "%"}, {"measurement": "activity at 330 µM", "setting": "[7]", "value": 114, "unit": "%"}, {"measurement": "activity at 1000 µM", "setting": "[7]", "value": 109, "unit": "%"}, {"measurement": "activity at 3300 µM", "setting": "[7]", "value": 115, "unit": "%"}, {"measurement": "activity at 10000 µM", "setting": "[7]", "value": 132, "unit": "%"}, {"measurement": "activity at 15000 µM", "setting": "[7]", "value": 140, "unit": "%"}, {"measurement": "activity at 20000 µM", "setting": "[7]", "value": 126, "unit": "%"}]}, {"smiles": "N[C@@H](CC(=O)O)C(=O)O", "note": "[L-aspartic acid]", "values": [{"measurement": "carbon source utilization", "setting": "[2]", "value": "+ and −"}, {"measurement": "suitability as nitrogen source (growth, purple color)", "setting": "[3]", "value": "positive"}]}, {"smiles": "N[C@@H](CS(=O)(=O)O)C(=O)O", "note": "[L-cysteic acid]", "values": [{"measurement": "suitability as sulfur source (growth, purple color)", "setting": "[1]", "value": "positive"}]}, {"smiles": "N[C@@H](CS(=O)O)C(=O)O", "note": "[L-cysteine sulphinic acid]", "values": [{"measurement": "suitability as sulfur source (growth, purple color)", "setting": "[1]", "value": "positive"}]}]}
